What was measured:
Assay in all cases: DSF
Format in all cases: binding
[1] = target: T1, DYRK1A (Homo sapiens, UniProt Q13627)
T1 construct: purchased in-house DSF panel (SGC Frankfurt)
Protocol: (§2) Recombinant protein kinase domains with a concentration of 2 μM were mixed with a 10 μM compound solution in DMSO, 20 mM HEPES, pH 7.5, and 500 mM NaCl. SYPRO Orange (5000×, Invitrogen) was added as a fluorescence probe (1 µl per mL). Subsequently, temperature-dependent protein unfolding profiles were measured, using the QuantStudio™ 5 realtime PCR machine (Thermo Fisher, Waltham, MA, USA). […] The temperature was raised with a step rate of 3 °C per minute. Data points were analyzed with the internal software (Thermal Shift SoftwareTM Version 1.4, Thermo Fisher) using the Boltzmann equation to determine the inflection point of the transition curve [56]. Differences in melting temperature are given as ΔTm values in °C. Measurements were performed in duplicates.

[2] = target: T2, DYRK2 (Homo sapiens, UniProt Q92630)
T2 construct: purchased in-house DSF panel (SGC Frankfurt)
T2 sequence (Q92630 1-601): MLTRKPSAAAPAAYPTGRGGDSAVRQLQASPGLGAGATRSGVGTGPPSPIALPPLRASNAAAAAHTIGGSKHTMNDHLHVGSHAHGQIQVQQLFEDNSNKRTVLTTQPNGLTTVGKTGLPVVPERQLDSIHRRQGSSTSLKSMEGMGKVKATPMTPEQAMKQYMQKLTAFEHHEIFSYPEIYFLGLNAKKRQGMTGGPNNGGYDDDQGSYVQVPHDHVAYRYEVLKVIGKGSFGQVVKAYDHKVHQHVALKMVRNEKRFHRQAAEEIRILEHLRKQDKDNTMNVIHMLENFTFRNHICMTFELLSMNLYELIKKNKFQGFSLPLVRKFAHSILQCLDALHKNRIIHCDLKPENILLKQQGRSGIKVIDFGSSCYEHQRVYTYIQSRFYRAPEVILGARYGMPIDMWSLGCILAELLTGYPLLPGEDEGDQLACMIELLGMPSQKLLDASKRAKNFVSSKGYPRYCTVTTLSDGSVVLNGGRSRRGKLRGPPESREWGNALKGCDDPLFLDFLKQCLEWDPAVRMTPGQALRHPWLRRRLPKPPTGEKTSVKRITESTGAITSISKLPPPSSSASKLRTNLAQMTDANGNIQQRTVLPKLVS
Protocol: as §2

[3] = target: T3, MAP2K4 (Homo sapiens, UniProt P45985)
T3 construct: purchased in-house DSF panel (SGC Frankfurt)
T3 sequence (P45985 102-367): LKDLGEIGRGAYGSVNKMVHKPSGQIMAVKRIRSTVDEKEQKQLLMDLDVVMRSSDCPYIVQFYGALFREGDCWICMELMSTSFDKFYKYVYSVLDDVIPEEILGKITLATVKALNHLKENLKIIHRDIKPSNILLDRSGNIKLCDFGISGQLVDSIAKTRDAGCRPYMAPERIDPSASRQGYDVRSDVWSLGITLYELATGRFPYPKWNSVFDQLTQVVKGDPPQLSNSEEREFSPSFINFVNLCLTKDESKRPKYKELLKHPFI
Protocol: as §2

[4] = target: T4, MAPK14 (Homo sapiens, UniProt Q16539)
T4 construct: purchased in-house DSF panel (SGC Frankfurt)
Protocol: as §2

[5] = target: T5, MAPK15 (Homo sapiens, UniProt Q8TD08)
T5 construct: purchased in-house DSF panel (SGC Frankfurt)
T5 sequence (Q8TD08 1-346): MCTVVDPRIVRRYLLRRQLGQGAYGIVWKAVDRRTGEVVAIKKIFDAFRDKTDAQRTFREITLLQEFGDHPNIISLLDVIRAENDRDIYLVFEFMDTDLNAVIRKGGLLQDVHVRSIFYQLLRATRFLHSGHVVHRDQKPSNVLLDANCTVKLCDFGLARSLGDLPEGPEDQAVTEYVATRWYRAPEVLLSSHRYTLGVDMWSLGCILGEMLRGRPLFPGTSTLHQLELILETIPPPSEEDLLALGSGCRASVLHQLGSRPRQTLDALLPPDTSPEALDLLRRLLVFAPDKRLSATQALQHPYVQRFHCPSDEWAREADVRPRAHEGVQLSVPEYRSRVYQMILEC
Protocol: as §2

[6] = target: T6, MST3 (Homo sapiens, UniProt Q9Y6E0)
T6 construct: purchased in-house DSF panel (SGC Frankfurt)
Protocol: as §2

[7] = target: T7, NEK1 (Homo sapiens, UniProt Q96PY6)
T7 construct: purchased in-house DSF panel (SGC Frankfurt)
T7 sequence (Q96PY6 1-328): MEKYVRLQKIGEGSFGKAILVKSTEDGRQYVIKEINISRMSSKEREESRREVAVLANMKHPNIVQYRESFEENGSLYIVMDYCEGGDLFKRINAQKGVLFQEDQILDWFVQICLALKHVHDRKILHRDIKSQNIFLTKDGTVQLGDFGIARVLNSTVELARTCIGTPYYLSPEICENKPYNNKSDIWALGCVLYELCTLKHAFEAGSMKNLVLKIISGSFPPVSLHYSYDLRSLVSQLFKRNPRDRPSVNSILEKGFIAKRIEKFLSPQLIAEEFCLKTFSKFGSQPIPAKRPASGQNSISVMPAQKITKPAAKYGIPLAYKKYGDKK
Protocol: as §2

[8] = target: T8, STK17A (Homo sapiens, UniProt Q9UEE5)
T8 construct: purchased in-house DSF panel (SGC Frankfurt)
T8 sequence (Q9UEE5 61-321): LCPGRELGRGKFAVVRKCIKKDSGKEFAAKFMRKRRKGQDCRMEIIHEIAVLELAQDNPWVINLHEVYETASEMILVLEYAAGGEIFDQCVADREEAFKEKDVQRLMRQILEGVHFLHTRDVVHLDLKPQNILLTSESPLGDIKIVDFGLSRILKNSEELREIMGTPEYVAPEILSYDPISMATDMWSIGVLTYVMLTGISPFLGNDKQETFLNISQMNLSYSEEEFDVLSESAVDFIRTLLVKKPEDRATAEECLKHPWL
Protocol: as §2

[9] = target: T9, EPHA4 (Homo sapiens, UniProt P54764)
T9 construct: purchased in-house DSF panel (SGC Frankfurt)
T9 sequence (P54764 606-890): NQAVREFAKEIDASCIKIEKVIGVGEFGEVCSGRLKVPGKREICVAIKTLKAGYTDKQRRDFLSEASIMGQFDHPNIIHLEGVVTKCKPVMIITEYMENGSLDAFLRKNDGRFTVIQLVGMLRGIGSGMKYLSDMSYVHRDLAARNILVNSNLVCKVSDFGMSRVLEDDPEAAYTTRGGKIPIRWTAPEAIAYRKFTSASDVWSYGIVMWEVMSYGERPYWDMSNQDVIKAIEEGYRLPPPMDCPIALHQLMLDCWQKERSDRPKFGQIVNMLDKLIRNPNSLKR
Protocol: (§1) Measurements were performed in duplicates.

[10] = target: T10, HIPK2 (Homo sapiens, UniProt Q9H2X6)
T10 construct: purchased in-house DSF panel (SGC Frankfurt)
Protocol: as §1

[11] = target: T11, ULK1 (Homo sapiens, UniProt O75385)
T11 construct: purchased in-house DSF panel (SGC Frankfurt)
T11 sequence (O75385 1-283): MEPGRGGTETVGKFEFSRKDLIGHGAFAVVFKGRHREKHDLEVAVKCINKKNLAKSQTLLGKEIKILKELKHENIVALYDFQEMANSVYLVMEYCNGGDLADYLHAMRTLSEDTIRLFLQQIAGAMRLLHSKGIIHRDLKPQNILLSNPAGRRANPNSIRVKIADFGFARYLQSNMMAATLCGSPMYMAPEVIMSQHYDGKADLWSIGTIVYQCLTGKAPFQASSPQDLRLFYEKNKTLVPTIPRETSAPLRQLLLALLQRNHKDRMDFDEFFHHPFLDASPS
Protocol: as §1

[12] = target: T12, FGFR3 (Homo sapiens, UniProt P22607)
T12 construct: purchased in-house DSF panel (SGC Frankfurt)
T12 sequence (P22607 455-768): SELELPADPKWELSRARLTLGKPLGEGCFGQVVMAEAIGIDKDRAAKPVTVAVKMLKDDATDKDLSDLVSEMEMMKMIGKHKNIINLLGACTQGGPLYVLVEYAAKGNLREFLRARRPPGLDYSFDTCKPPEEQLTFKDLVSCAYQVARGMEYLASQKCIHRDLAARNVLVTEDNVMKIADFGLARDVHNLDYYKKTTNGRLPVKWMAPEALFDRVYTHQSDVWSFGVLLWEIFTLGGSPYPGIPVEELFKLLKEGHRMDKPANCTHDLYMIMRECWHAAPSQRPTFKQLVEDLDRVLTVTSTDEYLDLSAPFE
Protocol: as §2

T10 sequence (Q9H2X6 199-527): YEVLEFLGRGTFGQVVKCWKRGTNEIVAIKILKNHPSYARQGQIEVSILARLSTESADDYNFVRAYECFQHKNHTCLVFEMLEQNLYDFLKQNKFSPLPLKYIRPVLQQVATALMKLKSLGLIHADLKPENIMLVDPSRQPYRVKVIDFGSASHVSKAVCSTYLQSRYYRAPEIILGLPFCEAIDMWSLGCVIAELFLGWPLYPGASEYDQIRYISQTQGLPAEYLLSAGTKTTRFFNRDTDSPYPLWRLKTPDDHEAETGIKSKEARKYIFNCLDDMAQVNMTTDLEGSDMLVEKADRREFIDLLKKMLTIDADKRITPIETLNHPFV
T6 sequence (Q9Y6E0 4-301): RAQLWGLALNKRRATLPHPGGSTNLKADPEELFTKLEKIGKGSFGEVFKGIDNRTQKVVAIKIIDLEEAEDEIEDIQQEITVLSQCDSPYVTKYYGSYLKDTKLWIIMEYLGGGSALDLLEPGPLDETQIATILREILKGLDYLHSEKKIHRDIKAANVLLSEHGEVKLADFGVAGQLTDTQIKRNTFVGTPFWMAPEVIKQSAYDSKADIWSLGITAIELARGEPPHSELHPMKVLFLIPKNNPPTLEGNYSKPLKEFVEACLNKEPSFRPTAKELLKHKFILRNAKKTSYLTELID
T4 sequence (Q16539 whole entry): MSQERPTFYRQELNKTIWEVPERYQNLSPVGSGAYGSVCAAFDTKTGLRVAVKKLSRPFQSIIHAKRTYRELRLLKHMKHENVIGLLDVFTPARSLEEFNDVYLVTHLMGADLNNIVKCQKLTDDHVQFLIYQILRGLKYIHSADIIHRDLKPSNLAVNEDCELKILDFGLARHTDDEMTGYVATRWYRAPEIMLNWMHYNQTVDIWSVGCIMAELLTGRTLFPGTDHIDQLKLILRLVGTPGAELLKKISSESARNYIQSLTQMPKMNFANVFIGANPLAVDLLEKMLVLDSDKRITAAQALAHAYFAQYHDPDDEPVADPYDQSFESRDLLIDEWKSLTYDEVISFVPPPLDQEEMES

| SMILES | ΔTm DYRK1A [1] | ΔTm DYRK2 [2] | ΔTm MAP2K4 [3] | ΔTm MAPK14 [4] | ΔTm MAPK15 [5] | ΔTm MST3 [6] | ΔTm NEK1 [7] | ΔTm STK17A [8] | ΔTm EPHA4 [9] | ΔTm HIPK2 [10] | ΔTm ULK1 [11] | ΔTm FGFR3 [12] |
| --- | --- | --- | --- | --- | --- | --- | --- | --- | --- | --- | --- | --- |
| CC(C)(C)OC(=O)Nc1ccc(CNc2nccc(Nc3cc(C(=O)OC(C)(C)C)[nH]n3)n2)cc1 [43d, tert-butyl 3-((2-((4-((tert-butoxycarbonyl)amino)benzyl)amino)pyrimidin-4-yl)amino)-1H-pyrazole-5-carboxylate] | 1.8 °C | 0.8 °C | 1.0 °C | -0.3 °C | 5.8 °C | -0.3 °C | 0.1 °C | -0.6 °C | 0.0 °C | 0.1 °C |  |  |
| CN[C@@H]1C[C@H]2O[C@@](C)([C@@H]1OC)n1c3ccccc3c3c4c(c5c6ccccc6n2c5c31)C(=O)NC4 [staurosporine, reference compound] |  |  |  |  |  |  |  |  | 6.2 °C | 4.4 °C | 11.3 °C |  |
| CC(C)OC(=O)c1cc(Nc2ccnc(NCc3ccc(NC(=O)OC(C)(C)C)cc3)n2)n[nH]1 [42d, isopropyl 3-((2-((4-((tert-butoxycarbonyl)amino)benzyl)amino)pyrimidin-4-yl)amino)-1H-pyrazole-5-carboxylate] | 0.0 °C | 0.5 °C | 0.4 °C | -0.5 °C | 7.0 °C | 0.8 °C | 0.2 °C | -0.4 °C | -0.1 °C | -0.2 °C |  |  |
| COC(=O)c1cc(Nc2ccnc(NCCOCCNC(=O)OC(C)(C)C)n2)[nH]n1 [21d, methyl 5-((2-((2-(2-((tert-butoxycarbonyl)amino)ethoxy)ethyl)amino)pyrimidin-4-yl)amino)-1H-pyrazole-3-carboxylate] | 1.2 °C | 2.1 °C | 0.9 °C | -0.3 °C | 4.1 °C | -0.3 °C | 0.1 °C | 2.2 °C |  |  | 2.3 °C | 0.6 °C |
| N#CCc1ccc(Nc2nccc(Nc3cc(C4CC4)[nH]n3)n2)cc1 [compound 1, reference compound] | 8.2 °C | 11.0 °C | 10.0 °C | 2.5 °C | 17.4 °C | 9.3 °C | 1.1 °C | 9.6 °C |  |  | 15.5 °C | 9.8 °C |
| COC(=O)c1cc(Nc2ccnc(NCc3ccc(NC(=O)OC(C)(C)C)cc3)n2)[nH]n1 [21i, methyl 5-((2-((4-((tert-butoxycarbonyl)amino)benzyl)amino)pyrimidin-4-yl)amino)-1H-pyrazole-3-carboxylate] | 3.4 °C | 1.1 °C | 2.4 °C | -0.6 °C | 5.9 °C | 0.1 °C | 0.4 °C | -0.1 °C |  |  | 2.7 °C | 1.2 °C |

Source: article PMC9736855, “Discovery of 3-Amino-1H-pyrazole-Based Kinase Inhibitors to Illuminate the Understudied PCTAIRE Family” (International Journal of Molecular Sciences, 2022)
